A value given as a limit tells only on which side of the number the result lay.

The first test has as its target T1, Syk catalytic domain (aa 356-635 with a C-terminal His-tag) (Homo sapiens, UniProt P43405).
T1 construct: His-tag (C); made in house
Description: In vitro Syk kinase activity measured by trFRET, Syk catalytic domain. The test is classed as biochemical.
Conditions: not given
Here is the method:
In Vitro Syk Kinase Activity Measured by Time-Resolved Fluorescence Resonance Energy Transfer (trFRET)
0.14 nM purified Syk catalytic domain (aa 356-635 with a C-terminal His-tag purified in-house by immobilized metal ion affinity chromatography) was mixed with 0.2 μM peptide substrate (biotin-TYR1, Sequence: Biotin-(Ahx)-GAEEEIYAAFFA-COOH) at varying inhibitor concentrations in reaction buffer: 50 mM MOPSO pH 6.5, 10 mM MgCl2, 2 mM MnCl2, 2.5 mM DTT, 0.01% BSA, 0.1 mM Na3VO4 and 0.001 mM ATP. After about 60 min incubation at rt, the reaction was quenched by addition of EDTA (final concentration: 100 mM) and developed by addition of revelation reagents (final approximate concentrations: 30 mM HEPES pH 7.0, 0.06% BSA, 0.006% Tween-20, 0.24 M KF, 80 ng/mL PT66K (europium labeled anti-phosphotyrosine antibody cat #61T66KLB Cisbio, Bedford, Mass.) and 0.6 μg/mL SAXL (Phycolink streptavidin-allophycocyanin acceptor, cat #PJ255, Prozyme, San Leandro, Calif.). The developed reaction was incubated in the dark either at about 4° C. for about 14 h or for about 60 min at rt, then read via a time-resolved fluorescence detector (Rubystar, BMG) using a 337 nm laser for excitation and monitoring emission wavelengths at 665 nm. Within the linear range of the assay, the observed signal at 665 nm was directly related to phosphorylated product and can be used to calculate the IC50 values.
MOPSO buffer contains: 50 mM MOPSO pH 6.5, 10 mM MgCl2, 2 mM MnCl2, 2.5 mM DTT, 0.01% BSA, and 0.1 mM Na3VO4 HEPES buffer contains: 50 mM HEPES pH 7.1, 2.5 mM DTT, 10 mM MgCl2, 2 mM MnCl2, 0.01% BSA, and 0.1 mM Na3VO4 MOPS buffer contains: 20 mM MOPS pH 7.2, 10 mM MgCl2, 5 mM EGTA, 5 mM Beta-phosphoglycerol, 1 mM Na3VO4, 0.01% Triton-X-100 and 1 mM DTT
Biotin-TYR1-peptide sequence: Biotin-(Ahx)-GAEEEIYAAFFA-COOH Biotin-TYR2-peptide sequence: Biotin-(Ahx)-AEEEYFFLFA-amide KinEASE 51 peptides were purchased from Cisbio (cat #62ST0PEB, Bedford, Mass.)
PT66K was purchased from Cisbio (cat #61T66KLB, Bedford, Mass.) EuSTK was purchased from Cisbio (cat #62ST0PEB, Bedford, Mass.) SAXL was purchased from Prozyme (cat #PJ25S, San Leandro, Calif.) Human T-Blasts IL-2 pSTAT5 Cellular Assay
What is called IC50 is the concentration at which inhibition is half-maximal. Compound `COc1ccc(-c2nc(C)n3c2cnc2[nH]ccc23)c(OC)c1` [AC.1.1] came in with an IC50 of 1 to 10 µM.

For `COc1ccc(-c2nc(C)n3c2cnc2[nH]ccc23)c(CO)c1` [AC.1.2], the IC50 was in the range of 1 to 10 µM. On the same count and under the same terms, in the case of `Cc1nc(-c2ccc(CO)nc2)c2cnc3[nH]ccc3n12` [AC.1.3] it was 0.1 to 1 µM; in that of `CCCNC(=O)c1cccc(-c2nc(C)n3c2cnc2[nH]ccc23)c1` [AC.1.4], 0.1 to 1 µM.

The compound `Cc1nc(-c2cccc3nccnc23)c2cnc3[nH]ccc3n12` [AC.1.5] displayed an IC50 of over 10 µM.

`Cc1nc(-c2ccc(S(C)(=O)=O)cc2)c2cnc3[nH]ccc3n12` [AC.1.6] showed a 50% inhibitory concentration (IC50) of 0.1 to 1 µM.

With `Cc1nc(-c2ccc(C(C)(C)CO)cc2)c2cnc3[nH]ccc3n12` [AC.1.7], the IC50 was under 0.1 µM.

For the compound `CNS(=O)(=O)c1ccc(-c2nc(C)n3c2cnc2[nH]ccc23)cc1` [AC.1.9], the half-maximal inhibitory concentration (IC50) is under 0.1 µM. On the same count and under the same terms, the value for `Cc1nc(-c2ccc(S(=O)(=O)N(C)C)cc2)c2cnc3[nH]ccc3n12` [AC.1.10] was 0.1 to 1 µM; that for `Cc1nc(-c2ccc(S(=O)(=O)C(C)C)cc2)c2cnc3[nH]ccc3n12` [AC.1.11] was 0.1 to 1 µM. `Cc1nc(-c2ccc(S(=O)(=O)N3CCN(C)CC3)cc2)c2cnc3[nH]ccc3n12` [AC.1.12] yielded a half-inhibitory concentration (IC50) of 1 to 10 µM. Same read-out and setting: the value for `Cc1nc(C2=CCN(C(=O)OC(C)(C)C)CC2)c2cnc3[nH]ccc3n12` [AC.1.13] was 1 to 10 µM; that for `Cc1nc(-c2ccc(OCCN3CCOCC3)cc2)c2cnc3[nH]ccc3n12` [AC.1.14] was under 0.1 µM; that for `COCCOc1ccc(-c2nc(C)n3c2cnc2[nH]ccc23)cc1` [AC.1.15] was 0.1 to 1 µM.

`Cc1nc(-c2ccc(OCC(=O)O)cc2)c2cnc3[nH]ccc3n12` [AC.1.16] registered a half-inhibitory concentration (IC50) of 0.1 to 1 µM.

`COc1ccc(-c2nc(C)n3c2cnc2[nH]ccc23)c(C)c1` [AC.1.17] yielded an IC50 of over 10 µM. Take `COc1ccc(-c2nc(C)n3c2cnc2[nH]ccc23)c(F)c1` [AC.1.18]: the IC50 fell in the range of 1 to 10 µM. `COc1ccc(-c2nc(C)n3c2cnc2[nH]ccc23)c(Cl)c1` [AC.1.19] registered an IC50 of 1 to 10 µM. On to `Cc1nc(-c2ccc(C(C)(C)O)c(F)c2)c2cnc3[nH]ccc3n12` [AC.1.20], for which the 50% inhibitory concentration (IC50) is under 0.1 µM. Still for that read-out and setting: in the case of `COc1ccc(-c2nc(C)n3c2cnc2[nH]ccc23)cn1` [AC.1.21] it was 0.1 to 1 µM; in that of `Cc1nc(-c2cccnc2)c2cnc3[nH]ccc3n12` [AC.1.22], 1 to 10 µM. Compound `COc1ncc(-c2nc(C)n3c2cnc2[nH]ccc23)cn1` [AC.1.23] gave an IC50 of 1 to 10 µM. Same read-out and setting: the value for `Cc1nc(-c2ccc(C(C)(C)O)nc2)c2cnc3[nH]ccc3n12` [AC.1.24] was 0.1 to 1 µM.

The compound `COc1c(C)cc(-c2nc(C)n3c2cnc2[nH]ccc23)cc1C` [AC.1.25] yielded an IC50 of under 0.1 µM.

In turn, `Cc1nc(-c2ccc3c(c2)CCO3)c2cnc3[nH]ccc3n12` [AC.1.26] came in with an IC50 of 0.1 to 1 µM.

The compound `Cc1cc(-c2nc(C)n3c2cnc2[nH]ccc23)ccc1N1CCOCC1` [AC.1.27] showed an IC50 of under 0.1 µM. On the same count and under the same terms, the value for `Cc1nc(-c2cnn(CC(C)(C)O)c2)c2cnc3[nH]ccc3n12` [AC.1.28] was 0.1 to 1 µM.

On to `CCCNC(=O)c1ccc(-c2nc(C)n3c2cnc2[nH]ccc23)cc1` [AC.1.29], for which the 50% inhibitory concentration (IC50) is under 0.1 µM.

Regarding `Cc1cc(-c2nc(C)n3c2cnc2[nH]ccc23)ccc1N1CCN(C)CC1` [AC.1.30], the concentration for half-maximal inhibition (IC50) is under 0.1 µM. Still for that read-out and setting: in the case of `COc1ccc(-c2nc(C)n3c2cnc2[nH]ccc23)s1` [AC.1.31] it was under 0.1 µM. Still for that read-out and setting: in the case of `CC(=O)c1ccc(-c2nc(C)n3c2cnc2[nH]ccc23)s1` [AC.1.32] it was 0.1 to 1 µM; in that of `Cc1nc(-c2ccc(C3(O)COC3)cc2)c2cnc3[nH]ccc3n12` [AC.1.33], 0.1 to 1 µM. The same measure, in the same setting: the value for `Cc1nc(-c2ccc(CO)cc2)c2cnc3[nH]ccc3n12` [AC.1.34] was 0.1 to 1 µM; that for `Cc1nc(-c2ccc(CC(C)(C)O)cc2)c2cnc3[nH]ccc3n12` [AC.1.35] was 0.1 to 1 µM. `Cc1nc(-c2ccc(C3(CO)CC3)cc2)c2cnc3[nH]ccc3n12` [AC.1.36] returned a concentration for half-maximal inhibition (IC50) of 0.1 to 1 µM. Same read-out and setting: in the case of `COc1ccc(-c2nc(C)n3c2cnc2[nH]ccc23)cc1C` [AC.1.37] it was 0.1 to 1 µM; in that of `Cc1nc(-c2ccc(CNS(=O)(=O)C3CC3)cc2)c2cnc3[nH]ccc3n12` [AC.1.38], 0.1 to 1 µM; in that of `Cc1nc(-c2cccc(S(C)(=O)=O)c2)c2cnc3[nH]ccc3n12` [AC.1.39], 0.1 to 1 µM. For `Cc1nc(-c2ccc(S(=O)(=O)NC3CC3)cc2)c2cnc3[nH]ccc3n12` [AC.1.40], the half-inhibitory concentration (IC50) fell in the range of 0.1 to 1 µM. Same read-out and setting: in the case of `COc1ccc(-c2nc(C)n3c2cnc2[nH]ccc23)cc1OC` [AC.1.41] it was under 0.1 µM.

For `COc1ccc(-c2nc(C)n3c2cnc2[nH]ccc23)cc1Cl` [AC.1.42], the half-maximal inhibitory concentration (IC50) was in the range of 0.1 to 1 µM. `COc1cc2c(-c3cc4c(ncc5cnn(C)c54)[nH]3)cn(C)c2cn1` [AC.2.1] showed an IC50 of under 0.1 µM. On the same count and under the same terms, the value for `COc1cnc2c(c1)c(-c1cc3c(ncc4cnn(C)c43)[nH]1)cn2C` [AC.2.2] was under 0.1 µM; that for `COc1cccc(-c2nc(C3CCCCC3)n3c2cnc2[nH]ccc23)c1` [AC.3.1] was 1 to 10 µM. On the same count and under the same terms, the value for `Fc1ccc(-c2nc(C3CCCCC3)n3c2cnc2[nH]ccc23)cc1` [AC.3.2] was 1 to 10 µM; that for `CC(=O)Nc1cccc(-c2nc(C3CCCCC3)n3c2cnc2[nH]ccc23)c1` [AC.3.3] was 0.1 to 1 µM; that for `CC(=O)c1cccc(-c2nc(C3CCCCC3)n3c2cnc2[nH]ccc23)c1` [AC.3.4] was 0.1 to 1 µM. For the compound `CC(=O)Nc1ccc(-c2nc(C3CCCCC3)n3c2cnc2[nH]ccc23)cc1` [AC.3.7], the 50% inhibitory concentration (IC50) was in the range of 0.1 to 1 µM. On the same count and under the same terms, the value for `Cn1ccc2cc(-c3nc(C4CCCCC4)n4c3cnc3[nH]ccc34)ccc21` [AC.3.8] was 0.1 to 1 µM. Same read-out and setting: in the case of `CN1CCN(Cc2ccc(-c3nc(C4CCCCC4)n4c3cnc3[nH]ccc34)cc2)CC1` [AC.3.14] it was 0.1 to 1 µM; in that of `NS(=O)(=O)c1ccc(-c2nc(C3CCCCC3)n3c2cnc2[nH]ccc23)cc1` [AC.3.15], 0.1 to 1 µM. The same measure, in the same setting: the value for `c1cnc(-c2nc(C3CCCCC3)n3c2cnc2[nH]ccc23)cn1` [AC.3.16] was 1 to 10 µM; that for `COCCNC(=O)c1ccc(-c2nc(C3CCCCC3)n3c2cnc2[nH]ccc23)cc1` [AC.3.17] was 0.1 to 1 µM. In the case of `CS(=O)(=O)NCc1ccc(-c2nc(C3CCCCC3)n3c2cnc2[nH]ccc23)cc1` [AC.3.18], the IC50 was 0.1 to 1 µM. Same read-out and setting: the value for `CC(=O)NCCc1ccc(-c2nc(C3CCCCC3)n3c2cnc2[nH]ccc23)cc1` [AC.3.19] was 0.1 to 1 µM. The compound `O=S(=O)(NCCO)c1cccc(-c2nc(C3CCCCC3)n3c2cnc2[nH]ccc23)c1` [AC.3.21] returned an IC50 of 0.1 to 1 µM. With `CN(C)C(=O)c1ccc(-c2nc(C3CCCCC3)n3c2cnc2[nH]ccc23)cc1` [AC.3.22], the half-inhibitory concentration (IC50) is 0.1 to 1 µM. Consider `c1cc(-c2nc(C3CCCCC3)n3c2cnc2[nH]ccc23)ccn1` [AC.3.23], for which the half-maximal inhibitory concentration (IC50) lay in the range of 0.1 to 1 µM. In turn, `CN(C)CCNC(=O)c1ccc(-c2nc(C3CCCCC3)n3c2cnc2[nH]ccc23)cc1` [AC.3.26] registered an IC50 of 0.1 to 1 µM. Still for that read-out and setting: in the case of `O=C(c1ccc(-c2nc(C3CCCCC3)n3c2cnc2[nH]ccc23)cc1)N1CCOCC1` [AC.3.28] it was 0.1 to 1 µM.

The test is the same for the next values; noted with them: Syk catalytic domain (aa 356-635), trFRET, 0.001 mM ATP.
The compound `CC(=O)N[C@@H]1C[C@@H](c2nc(-c3ccc(C(C)(C)O)cc3)c3cnc4[nH]ccc4n23)N(S(=O)(=O)C2CC2)C1` (racemic) [N.1.65] returned a half-maximal inhibitory concentration (IC50) of 1 to 10 µM. Still for that read-out and setting: in the case of `CC(C)(O)c1ccc(-c2nc([C@@H]3CCCC[C@H]3CN)n3c2cnc2[nH]ccc23)cc1` (racemic) [N.1.78] it was 0.1 to 1 µM; in that of `COc1ccc2c(c1)c(-c1cc3c(ncc4cnc([C@@H]5CC[C@H](N)C5)n43)[nH]1)cn2C` (relative stereo) [T.1.1, cis-3-(7-(5-Methoxy-1-methyl-1H-indol-3-yl)-6H-imidazo[1,5-a]pyrrolo[2,3-e]pyrazin-1-yl)cyclopentanamine diacetate], under 0.1 µM. Still for that read-out and setting: in the case of `CS(=O)(=O)c1cccc(-c2cc3c(ncc4cnc([C@@H]5CC[C@H](N)C5)n43)[nH]2)c1` (relative stereo) [T.1.1.5, (cis)-3-(7-(3-(Methylsulfonyl)phenyl)-6H-imidazo[1,5-a]pyrrolo[2,3-e]pyrazin-1-yl)cyclopentanamine] it was 0.1 to 1 µM.

The values are drawn from patent US20140349970A1 (ABBVIE INC., priority 2009, published 2014).
